# Test results from ChEMBL document CHEMBL4665702, “Cacalol Acetate, a Sesquiterpene from Psacalium decompositum, Exerts an Anti-inflammatory Effect through LPS/NF-KB Signaling in Raw 264.7 Macrophages” (2020).
# Calls of active or inactive are those of the source. No cut-off for these calls is given here.
# Key:
# RAW264.7 [1] = assay: Anti-inflammatory activity in mouse RAW264.7 cells assessed as inhibition of LPS-induced TNF-alpha production at 50 to 100 uM preincubated for 1 hr followed by LPS administration measured after 3 hrs by ELISA; type: functional, cell-based; conditions: dose microM 50-100, time 4.0 hrs
# RAW264.7 [2] = assay: Anti-inflammatory activity in mouse RAW264.7 cells assessed as inhibition of LPS-induced IL-1beta production at 50 to 100 uM preincubated for 1 hr followed by LPS administration measured after 3 hrs by ELISA; type: functional, cell-based; conditions: dose microM 50-100, time 4.0 hrs
# RAW264.7 [3] = assay: Anti-inflammatory activity in mouse RAW264.7 cells assessed as inhibition of LPS-induced IL-6 production at 50 to 100 uM preincubated for 1 hr followed by LPS administration measured after 3 hrs by ELISA; type: functional, cell-based; conditions: dose microM 50-100, time 4.0 hrs
# RAW264.7 [4] = assay: Anti-inflammatory activity in mouse RAW264.7 cells assessed as inhibition of LPS-induced TNF-alpha mRNA expression at 50 to 100 uM preincubated for 1 hr followed by LPS administration measured after 3 hrs by RT-PCR analysis; type: functional, cell-based; conditions: dose microM 50-100, time 4.0 hrs
# RAW264.7 [5] = assay: Anti-inflammatory activity in mouse RAW264.7 cells assessed as inhibition of LPS-induced IL-1beta mRNA expression at 50 to 100 uM preincubated for 1 hr followed by LPS administration measured after 3 hrs by RT-PCR analysis; type: functional, cell-based; conditions: dose microM 50-100, time 4.0 hrs
# RAW264.7 [6] = assay: Anti-inflammatory activity in mouse RAW264.7 cells assessed as inhibition of LPS-induced IL-6 mRNA expression at 50 to 100 uM preincubated for 1 hr followed by LPS administration measured after 3 hrs by RT-PCR analysis; type: functional, cell-based; conditions: dose microM 50-100, time 4.0 hrs
# RAW264.7 [7] = assay: Anti-inflammatory activity in mouse RAW264.7 cells assessed as inhibition of LPS-induced COX2 level at 50 to 100 uM preincubated for 90 mins followed by LPS administration measured after 3 hrs by fluorimetric analysis relative to control; type: functional; conditions: dose microM 50-100; time 270 min; 4.5 h
# RAW264.7 [8] = assay: Anti-inflammatory activity in mouse RAW264.7 cells assessed as inhibition of LPS-induced COX2 mRNA expression at 50 to 100 uM preincubated for 90 mins followed by LPS administration measured after 3 hrs by RT-qPCR analysis; type: functional, cell-based; conditions: dose microM 50-100, time 270.0 min
# RAW264.7 [9] = assay: Anti-inflammatory activity in mouse RAW264.7 cells assessed as inhibition of LPS-induced COX2 protein level at 50 to 100 uM preincubated for 90 mins followed by LPS administration measured after 3 hrs by RT-qPCR analysis relative to control; type: functional; conditions: dose microM 50-100; time 270 min; 4.5 h
# RAW264.7 [10] = assay: Inhibition of NFkappaB in mouse RAW 264.7 cells assessed as reduction in LPS-induced transcriptional activation at 50 uM preincubated for 1 hr followed by LPS administration measured after 25 mins by EMSA relative to control; type: cell-based; conditions: time 85.0 min
# RAW264.7 [11] = assay: Inhibition of NFkappaB in mouse RAW 264.7 cells assessed as reduction in LPS-induced transcriptional activation at 100 uM preincubated for 1 hr followed by LPS administration measured after 25 mins by EMSA relative to control; type: cell-based; conditions: time 85.0 min
# [12] = molecular target: Transcription factor p65 (Mus musculus) (UniProt Q04207); assay: Inhibition of p65 phosphorylation at Ser536 residues in LPS-induced mouse RAW 264.7 cells at 100 uM preincubated for 1 hr followed by LPS administration measured after 25 mins by Western blot analysis relative to control; conditions: RAW264.7, time 85.0 min
# Target sequence in this assay (Q04207 whole entry): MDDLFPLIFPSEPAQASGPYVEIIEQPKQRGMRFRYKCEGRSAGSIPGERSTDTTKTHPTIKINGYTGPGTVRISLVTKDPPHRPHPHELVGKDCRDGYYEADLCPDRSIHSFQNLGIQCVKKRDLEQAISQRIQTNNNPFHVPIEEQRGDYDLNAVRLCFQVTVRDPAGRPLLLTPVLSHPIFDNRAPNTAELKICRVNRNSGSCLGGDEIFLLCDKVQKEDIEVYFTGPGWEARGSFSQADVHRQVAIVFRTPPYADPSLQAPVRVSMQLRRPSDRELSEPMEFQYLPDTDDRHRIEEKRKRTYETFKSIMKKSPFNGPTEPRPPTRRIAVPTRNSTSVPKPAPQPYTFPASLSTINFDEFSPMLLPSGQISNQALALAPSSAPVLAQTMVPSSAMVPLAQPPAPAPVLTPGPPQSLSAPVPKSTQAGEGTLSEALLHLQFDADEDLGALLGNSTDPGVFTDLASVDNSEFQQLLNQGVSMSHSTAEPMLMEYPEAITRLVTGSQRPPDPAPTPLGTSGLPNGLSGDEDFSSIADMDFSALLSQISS
# [13] = molecular target: T1, Inhibitor of nuclear factor kappa-B kinase subunit beta (Mus musculus) (UniProt O88351); assay: Inhibition of IKK-beta phosphorylation at Ser176/177 residues in LPS-induced mouse RAW 264.7 cells at 50 to 100 uM preincubated for 1 hr followed by LPS administration measured after 25 mins by Western blot analysis; conditions: RAW264.7, dose microM 50-100, time 85.0 min
# T1 sequence (whole entry): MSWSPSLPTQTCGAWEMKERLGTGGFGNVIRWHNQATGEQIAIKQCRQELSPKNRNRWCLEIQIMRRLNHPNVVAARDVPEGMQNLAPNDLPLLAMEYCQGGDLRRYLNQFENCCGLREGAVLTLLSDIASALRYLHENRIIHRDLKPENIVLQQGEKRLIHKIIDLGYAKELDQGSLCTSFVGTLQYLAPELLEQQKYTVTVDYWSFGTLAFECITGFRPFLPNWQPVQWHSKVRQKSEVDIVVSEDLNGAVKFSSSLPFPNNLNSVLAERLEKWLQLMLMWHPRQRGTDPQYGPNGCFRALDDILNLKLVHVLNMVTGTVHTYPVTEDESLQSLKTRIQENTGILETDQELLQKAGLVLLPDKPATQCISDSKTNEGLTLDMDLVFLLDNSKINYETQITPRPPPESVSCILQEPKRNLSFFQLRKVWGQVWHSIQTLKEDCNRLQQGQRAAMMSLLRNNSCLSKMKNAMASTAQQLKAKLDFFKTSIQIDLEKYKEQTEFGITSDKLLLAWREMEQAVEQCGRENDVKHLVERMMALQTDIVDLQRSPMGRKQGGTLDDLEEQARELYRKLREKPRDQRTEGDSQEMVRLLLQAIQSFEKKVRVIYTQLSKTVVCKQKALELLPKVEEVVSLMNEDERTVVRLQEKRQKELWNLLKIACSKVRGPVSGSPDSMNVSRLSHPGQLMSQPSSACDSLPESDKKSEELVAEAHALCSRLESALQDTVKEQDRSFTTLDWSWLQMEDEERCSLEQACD
# Mus musculus [14] = assay: Anti-inflammatory activity in TPA-induced CD-1 mouse ear edema model assessed as ear weight at 1 mg; type: functional
# Mus musculus [15] = assay: Anti-inflammatory activity in TPA-induced CD-1 mouse ear edema model assessed as inhibition of ear edema at 1 mg relative to control; type: functional
# RAW264.7 [16] = assay: Anti-inflammatory activity in mouse RAW264.7 cells assessed as inhibition of LPS-induced TNF-alpha production at 10 uM preincubated for 1 hr followed by LPS administration measured after 3 hrs by ELISA; type: functional, cell-based; conditions: time 4.0 hrs
# RAW264.7 [17] = assay: Anti-inflammatory activity in mouse RAW264.7 cells assessed as inhibition of LPS-induced IL-1beta production at 10 uM preincubated for 1 hr followed by LPS administration measured after 3 hrs by ELISA; type: functional, cell-based; conditions: time 4.0 hrs
# RAW264.7 [18] = assay: Anti-inflammatory activity in mouse RAW264.7 cells assessed as inhibition of LPS-induced IL-6 production at 10 uM preincubated for 1 hr followed by LPS administration measured after 3 hrs by ELISA; type: functional, cell-based; conditions: time 4.0 hrs
# RAW264.7 [19] = assay: Anti-inflammatory activity in mouse RAW264.7 cells assessed as inhibition of LPS-induced TNF-alpha mRNA expression at 10 uM preincubated for 1 hr followed by LPS administration measured after 3 hrs by RT-PCR analysis; type: functional, cell-based; conditions: time 4.0 hrs
# RAW264.7 [20] = assay: Anti-inflammatory activity in mouse RAW264.7 cells assessed as inhibition of LPS-induced IL-1beta mRNA expression at 10 uM preincubated for 1 hr followed by LPS administration measured after 3 hrs by RT-PCR analysis; type: functional, cell-based; conditions: time 4.0 hrs
# RAW264.7 [21] = assay: Anti-inflammatory activity in mouse RAW264.7 cells assessed as inhibition of LPS-induced IL-6 mRNA expression at 10 uM preincubated for 1 hr followed by LPS administration measured after 3 hrs by RT-PCR analysis; type: functional, cell-based; conditions: time 4.0 hrs
# [22] = molecular target: T1, Inhibitor of nuclear factor kappa-B kinase subunit beta (Mus musculus); assay: Inhibition of IKK-beta phosphorylation at Ser176/177 residues in LPS-induced mouse RAW 264.7 cells at 10 uM preincubated for 1 hr followed by LPS administration measured after 25 mins by Western blot analysis relative to control; conditions: RAW264.7, time 85.0 min
# [23] = molecular target: Transcription factor p65 (Mus musculus) (UniProt Q04207); assay: Inhibition of p65 phosphorylation at Ser536 residues in LPS-induced mouse RAW 264.7 cells at 10 uM preincubated for 1 hr followed by LPS administration measured after 25 mins by Western blot analysis relative to control; conditions: RAW264.7, dose 100.0 µM, time 85.0 min
# Target sequence in this assay (Q04207 whole entry, looked up): as the sequence (Q04207 whole entry) above
smiles,measurement,setting,value
CC(=O)Oc1c2c(c(C)c3c(C)coc13)[C@@H](C)CCC2,inhibition,RAW264.7 [1],Active
same,inhibition,RAW264.7 [2],Active
same,inhibition,RAW264.7 [3],Active
same,inhibition,RAW264.7 [4],Active
same,inhibition,RAW264.7 [5],Active
same,inhibition,RAW264.7 [6],Active
same,fold change (FC),RAW264.7 [7],2.5
same,inhibition,RAW264.7 [8],Active
same,fold change (FC),RAW264.7 [9],2
same,fold change (FC),RAW264.7 [10],1.7
same,fold change (FC),RAW264.7 [11],2.1
same,fold change (FC),[12],0.2
same,inhibition,[13],inactive
same,Activity,Mus musculus [14],6.56 mg
same,inhibition (INH),Mus musculus [15],70.3%
CC(C)(C)c1ccc(S(=O)(=O)/C=C/C#N)cc1,inhibition,RAW264.7 [16],Active
same,inhibition,RAW264.7 [17],Active
same,inhibition,RAW264.7 [18],Active
same,inhibition,RAW264.7 [19],Active
same,inhibition,RAW264.7 [20],Active
same,inhibition,RAW264.7 [21],Active
same,fold change (FC),[22],1.5
same,fold change (FC),[23],0.1
Cc1coc2c(O)c3c(c(C)c12)[C@@H](C)CCC3 [CACALOL],Activity,Mus musculus [14],8.55 mg
same,inhibition (INH),Mus musculus [15],48.5%
COc1ccc2c(c1)c(CC(=O)O)c(C)n2C(=O)c1ccc(Cl)cc1 [INDOMETHACIN],Activity,Mus musculus [14],4.05 mg
same,inhibition (INH),Mus musculus [15],78.6%
